This assay has as its target Endothelial lipase (EL) (Homo sapiens (Human), UniProt Q9Y5X9). The assay can be described thus: Endothelial lipase (EL) enzymatic assay with fluorescent substrate A10070 in DMPG vesicles. The class given is biochemical. The essentials:
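EL from conditioned medium of HT-1080 cells engineered to overexpress endogenous EL; HL partially purified from conditioned medium of HL-overexpressing COS cells. Enzyme preincubated with compound 30 min at 37° C in 50 mM HEPES pH 8.0, 50 mM NaCl, 1 mM CaCl2; DMPG vesicles carrying FRET substrate (0.11 mole fraction) then added.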
Sequence of Endothelial lipase (EL) (Q9Y5X9 21-500): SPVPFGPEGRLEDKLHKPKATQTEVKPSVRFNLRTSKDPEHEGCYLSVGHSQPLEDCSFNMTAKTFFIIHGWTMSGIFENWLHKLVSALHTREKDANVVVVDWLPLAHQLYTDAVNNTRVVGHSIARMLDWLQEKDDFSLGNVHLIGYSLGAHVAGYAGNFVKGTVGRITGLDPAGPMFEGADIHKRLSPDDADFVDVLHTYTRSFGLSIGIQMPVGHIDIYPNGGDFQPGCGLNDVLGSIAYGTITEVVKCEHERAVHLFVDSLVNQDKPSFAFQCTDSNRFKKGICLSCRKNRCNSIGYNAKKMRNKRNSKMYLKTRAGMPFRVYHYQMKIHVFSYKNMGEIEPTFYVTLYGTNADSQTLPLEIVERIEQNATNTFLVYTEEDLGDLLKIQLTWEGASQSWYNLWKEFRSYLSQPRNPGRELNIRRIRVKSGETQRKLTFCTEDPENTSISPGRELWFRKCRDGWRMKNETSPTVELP
Consider `COCCS(=O)(=O)C(C(=O)NCC(=O)NC1CC1)c1nc2ccc(-c3ccc(OC(C)C)nc3)cc2s1` (stereo not drawn) [Example 291, N-[(cyclopropyl-carbamoyl)methyl]-2-(2-methoxyethane-sulfonyl)-2-{6-[6-(propan-2-yloxy)pyridin-3-yl]-1,3-benzothiazol-2-yl} acetamide], for which the 50% inhibitory concentration (IC50) came to 0.029 µM.

Take `CS(=O)(=O)C(C(=O)NCC(=O)NC1CC1)c1nc2cc(-c3ccccc3)ccc2s1` (stereo not drawn) [Example 610, N-[(cyclopropyl-carbamoyl)methyl]-2-methanesulfonyl-2-(5-phenyl-1,3-benzothiazol-2-yl)acetamide]: inhibition was half-maximal at 0.04 µM (IC50).

In turn, `CC1(O)CN(C(=O)c2ccc(-c3ccc4nc(C(C(=O)NCC(=O)NC5CC5)S(=O)(=O)c5ccccc5)sc4c3)cc2)C1` (stereo not drawn) [Example 402, 2-(benzenesulfonyl)-N-[(cyclopropyl-carbamoyl)methyl]-2-{6-[4-(3-hydroxy-3-methylazetidine-1-carbonyl)phenyl]-1,3-benzothiazol-2-yl}acetamide] displayed an IC50 of 0.006 µM.

Compound `COCCS(=O)(=O)C(C(=O)NCC(=O)NC1CC1)c1nc2cc(F)c(-c3ccc(-c4noc(=O)[nH]4)cc3)cc2s1` (stereo not drawn) [Example 286, N-[(cyclopropyl-carbamoyl)methyl]-2-{5-fluoro-6-[4-(5-oxo-4,5-dihydro-1,2,4-oxadiazol-3-yl)phenyl]-1,3-benzothiazol-2-yl}-2-(2-methoxyethane-sulfonyl)acetamide] showed a half-maximal inhibitory concentration (IC50) of 0.008 µM.

`COCCS(=O)(=O)C(C(=O)NCC(=O)NCCOC(C)C)c1nc2cc(-c3ccc4c(c3)CNC4=O)c(F)cc2s1` (stereo not drawn) [Example 354, 2-[6-fluoro-5-(1-oxo-2,3-dihydro-1H-isoindol-5-yl)-1,3-benzothiazol-2-yl]-2-(2-methoxyethane-sulfonyl)-N-({[2-(propan-2-yloxy)ethyl]carbamoyl}methyl)acetamide] showed an IC50 of 0.024 µM.

`CN(C)S(=O)(=O)C(C(=O)NCC(=O)NC1CC1)c1nc2cc(F)c(-c3cccc(-n4cccn4)c3)cc2s1` (stereo not drawn) [Example 506, N-[(cyclopropyl-carbamoyl)methyl]-2-(dimethyl-sulfamoyl)-2-{5-fluoro-6-[3-(1H-pyrazol-1-yl)phenyl]-1,3-benzothiazol-2-yl} acetamide] had an IC50 of 0.052 µM.

`COCCS(=O)(=O)C(C(=O)NCC(=O)NC1CC1)c1nc2c(F)cc(-c3ccc(F)nc3)cc2s1` (stereo not drawn) [Example 514, N-[(cyclopropyl-carbamoyl)methyl]-2-[4-fluoro-6-(6-fluoropyridin-3-yl)-1,3-benzothiazol-2-yl]-2-(2-methoxyethane-sulfonyl)acetamide] had an IC50 of 0.043 µM.

Take `COCCS(=O)(=O)C(C(=O)NCC(=O)NC1CC1)c1nc2ccc(-c3ccc(-c4ncco4)cc3)cc2s1` (stereo not drawn) [Example 93, N-[(cyclopropyl-carbamoyl)methyl]-2-(2-methoxyethane-sulfonyl)-2-{6[4-(1,3-oxazol-2-yl)phenyl]-1,3-benzothiazol-2-yl} acetamide]: it took 0.001 µM to reach half-maximal inhibition (IC50).

`COCCS(=O)(=O)C(C(=O)NCC(=O)NC1CC1)c1nc2ccc(-c3ccnc(O)c3)cc2s1` (stereo not drawn) [Example 600, N-[(cyclopropyl-carbamoyl)methyl]-2-[6-(2-hydroxypyridin-4-yl)-1,3-benzothiazol-2-yl]-2-(2-methoxyethane-sulfonyl)acetamide]: inhibition was half-maximal at 0.014 µM (IC50).

Turning to `COCCS(=O)(=O)C(C(=O)NCC(=O)NC1CC1)c1nc2cc(-c3ccn(C)c(=O)c3)c(F)cc2s1` (stereo not drawn) [Example 342, N-[(cyclopropyl-carbamoyl)methyl]-2-[6-fluoro-5-(1-methyl-2-oxo-1,2-dihydropyridin-4-yl)-1,3-benzothiazol-2-yl]-2-(2-methoxyethane-sulfonyl)acetamide], the IC50 came out at 0.023 µM.

For the compound `CS(=O)(=O)C(C(=O)NCC(=O)NC1CC1)c1nc2cc(OC(F)F)c(-c3ccc(F)nc3)cc2s1` (stereo not drawn) [Example 602, N-[(cyclopropyl-carbamoyl)methyl]-2-[5-(difluoromethoxy)-6-(6-fluoropyridin-3-yl)-1,3-benzothiazol-2-yl]-2-methanesulfonyl-acetamide], the IC50 is 0.018 µM.

Compound `COCCNC(=O)c1ccc(-c2ccc3nc(C(C(=O)NCC(=O)NC4CC4)S(=O)(=O)CCOC)sc3c2)cc1` (stereo not drawn) [Example 306, 4-[2-({[(cyclopropyl-carbamoyl)methyl]carbamoyl}(2-methoxyethane-sulfonyl)methyl)-1,3-benzothiazol-6-yl]-N-(2-methoxyethyl) benzamide] showed an IC50 of 0.013 µM.

Compound `CC(C)c1ccc(-c2cc3sc(C(C(=O)NCC(=O)NC4CC4)S(=O)(=O)C(C)C)nc3cc2F)cn1` (stereo not drawn) [Example 251, N-[(cyclopropyl-carbamoyl)methyl]-2-{5-fluoro-6-[6-(propan-2-yl)pyridin-3-yl]-1,3-benzothiazol-2-yl}-2-(propane-2-sulfonyl) acetamide] came in with an IC50 of 0.008 µM.

With `Cc1cc(-c2cc3nc(C(C(=O)NCC(=O)NCCOC(C)C)S(C)(=O)=O)sc3cc2F)cnn1` (stereo not drawn) [Example 362, 2-[6-fluoro-5-(6-methylpyridazin-4-yl)-1,3-benzothiazol-2-yl]-2-methanesulfonyl-N-({[2-(propan-2-yloxy)ethyl]carbamoyl}methyl)acetamide], the midpoint of inhibition, the IC50, lay at 0.025 µM.

`CC(C)c1cc(CNC(=O)c2ccc3sc(C(C(=O)NCC(=O)NC4CC4)S(=O)(=O)Cc4ccc(F)cc4)nc3c2)on1` (stereo not drawn) [Example 426, 2-({[(cyclopropyl-carbamoyl)methyl]carbamoyl}(4-fluorophenyl)methanesulfonyl-methyl)-N-{[3-(propan-2-yl)-1,2-oxazol-5-yl]methyl}-1,3-benzothiazole-5-carboxamide] showed an IC50 of 0.062 µM.

As to `Cc1ncc(-c2cc3sc(C(C(=O)NCC(=O)NC4CC4)S(C)(=O)=O)nc3cc2F)cn1` (stereo not drawn) [Example 194, N-[(cyclopropyl-carbamoyl)methyl]-2-[5-fluoro-6-(2-methylpyrimidin-5-yl)-1,3-benzothiazol-2-yl]-2-methanesulfonyl-acetamide], the IC50 was 0.034 µM.

`COCCS(=O)(=O)C(C(=O)NCC(=O)NC1CC1)c1nc2cc(F)c(-c3cccc(F)n3)cc2s1` (stereo not drawn) [Example 181, N-[(cyclopropyl-carbamoyl)methyl]-2-[5-fluoro-6-(6-fluoropyridin-2-yl)-1,3-benzothiazol-2-yl]-2-(2-methoxyethane-sulfonyl) acetamide] returned a half-inhibitory concentration (IC50) of 0.143 µM.

Regarding `COCCS(=O)(=O)C(C(=O)NCC(=O)NC1CC1)c1nc2ccc(-c3ccnc(C(F)(F)F)c3)cc2s1` (stereo not drawn) [Example 290, N-[(cyclopropyl-carbamoyl)methyl]-2-(2-methoxyethane-sulfonyl)-2-{6-[2-(trifluoromethyl)pyridin-4-yl]-1,3-benzothiazol-2-yl} acetamide], half-maximal inhibition (IC50) was put at 0.023 µM.

The compound `O=C(CNC(=O)C(c1nc2cc(F)c(-c3ccc(NC(=O)OCC4CC4)cc3)cc2s1)S(=O)(=O)CCC(F)(F)F)NC1CC1` (stereo not drawn) [Example 531, cyclopropylmethyl N-{4-[2-({[(cyclopropyl-carbamoyl)methyl]carbamoyl}(3,3,3-trifluoropropane-sulfonyl)methyl)-5-fluoro-1,3-benzothiazol-6-yl]phenyl} carbamate] showed an IC50 of 0.001 µM.

Consider `COCC(C)(C)NC(=O)c1ccc(-c2ccc3nc(C(C(=O)NCC(=O)NC4CC4)S(C)(=O)=O)sc3c2)cc1` (stereo not drawn) [Example 560, 4-[2-({[(cyclopropyl-carbamoyl)methyl]carbamoyl} (methanesulfonyl)methyl)-1,3-benzothiazol-6-yl]-N-(1-methoxy-2-methylpropan-2-yl)benzamide], for which the half-maximal inhibitory concentration (IC50) amounted to 0.002 µM.

The compound `Cc1ncc(-c2ccc3nc(C(C(=O)NCC(=O)NC4CC4)S(=O)(=O)c4ccc(F)cc4)sc3c2)cn1` (stereo not drawn) [Example 452, N-[(cyclopropyl-carbamoyl)methyl]-2-(4-fluorobenzene-sulfonyl)-2-[6-(2-methylpyrimidin-5-yl)-1,3-benzothiazol-2-yl]acetamide] had a half-maximal inhibitory concentration (IC50) of 0.039 µM.

As to `CC(C)(C)OC(=O)N1CCC(S(=O)(=O)C(C(=O)NCC(=O)NC2CC2)c2nc3ccc(-c4ccc(F)nc4)cc3s2)CC1` (stereo not drawn) [Example 222, tert-butyl 4-({[(cyclopropyl-carbamoyl)methyl]carbamoyl}[6-(6-fluoropyridin-3-yl)-1,3-benzothiazol-2-yl]methanesulfonyl) piperidine-1-carboxylate], the concentration for half-maximal inhibition (IC50) is 0.078 µM.

`COCCS(=O)(=O)C(C(=O)NCC(=O)NC1CC1)c1nc2cc(F)c(-c3ccc(C(=O)N4CC(C)(O)C4)cc3)cc2s1` (stereo not drawn) [Example 565, N-[(cyclopropyl-carbamoyl)methyl]-2-{5-fluoro-6-[4-(3-hydroxy-3-methylazetidine-1-carbonyl)phenyl]-1,3-benzothiazol-2-yl}-2-(2-methoxyethane-sulfonyl)acetamide] registered a half-maximal inhibitory concentration (IC50) of 0.003 µM.

The compound `CN(C)S(=O)(=O)C(C(=O)NCC(=O)NC1CC1)c1nc2c(F)cc(-c3ccc(-n4ccccc4=O)cc3)cc2s1` (stereo not drawn) [Example 497, N-[(cyclopropyl-carbamoyl)methyl]-2-(dimethyl-sulfamoyl)-2-{4-fluoro-6-[4-(2-oxo-1,2-dihydropyridin-1-yl)phenyl]-1,3-benzothiazol-2-yl}acetamide] registered an IC50 of 0.003 µM.

Turning to `CC(=O)NCc1ccc(-c2cc3sc(C(C(=O)NCC(=O)NC4CC4)S(=O)(=O)c4cccc(Cl)c4)nc3cc2F)cc1` (stereo not drawn) [Example 444, 2-(3-chlorobenzene-sulfonyl)-N-[(cyclopropyl-carbamoyl)methyl]-2-{6-[4-(acetamidomethyl)phenyl]-5-fluoro-1,3-benzothiazol-2-yl}acetamide], the half-maximal inhibitory concentration (IC50) worked out at 0.005 µM.

For the compound `O=C(CNC(=O)C(c1nc2ccc(-c3ccc(F)nc3)cc2s1)S(=O)(=O)c1cccnc1)NC1CC1` (stereo not drawn) [Example 467, N-[(cyclopropyl-carbamoyl)methyl]-2-[6-(6-fluoropyridin-3-yl)-1,3-benzothiazol-2-yl]-2-(pyridine-3-sulfonyl) acetamide], it took 0.193 µM to reach half-maximal inhibition (IC50).

For `CCS(=O)(=O)C(C(=O)NCC(=O)NC1CC1)c1nc2cc(F)c(-c3ccc(NC(=O)OCc4ccccc4)cc3)cc2s1` (stereo not drawn) [Example 45, benzyl N-{4-[2-({[(cyclopropyl-carbamoyl)methyl]carbamoyl} (ethanesulfonyl)methyl)-5-fluoro-1,3-benzothiazol-6-yl]phenyl} carbamate], the IC50 is 0.003 µM.

By IC50 is commonly meant the concentration at which inhibition is half-maximal. A lower IC50 goes with greater potency in that assay.

These data come from US10173991B2, “Sulfone amide linked benzothiazole inhibitors of endothelial lipase” (BRISTOL-MYERS SQUIBB COMPANY, priority 2014, dated 2019).
